Measured values: patent US10555923B2, “Method for treating paroxysmal nocturnal hemoglobinuria” (ENZYCHEM LIFESCIENCES CORPORATION, priority 2015, dated 2020)

How the values were obtained:
C3 [1] = experiment: C3 mRNA expression in HepG2 cell line (RT-PCR); type: cell-based, human
Procedure: A liver cell line, HepG2 (American Type Culture Collection, ATCC, Rockville, Md.), is incubated and maintained at 37° C., 5% CO2 humid atmosphere in DMEM medium. When HepG2 cells, which are known to produce complement in culture, are treated with PLAG, the activity of complement is reduced effectively, as confirmed by RT-PCR of mRNA. In the RT-PCR, 5×10^5 HepG2 cells/ml are distributed into 12 well plates and induced C3 for 12 hours with 10% FCS. Then PLAG is added and further cultured for 2 hours. Cells are harvested and mRNA is isolated and RT-PCR is carried out with specific primers for C3; GAPDH is used as an internal control.

STAT6 [2] = target: T1, STAT6 (Homo sapiens, UniProt P42226); experiment: Dephosphorylation of STAT6 in IL-4 stimulated cell lysates (Western blot); type: cell-based; settings: U937, Jurkat and A549 cells; PLAG 0.01 to 10 μg/ml; 10 ng/ml IL-4; 15 min after stimulation
T1 construct: using anti-phosphorylated STAT6 in U937, A549, and Jurkat cell lysates treated with PLAG; endogenous in cells; host or cells: U937, A549, Jurkat
T1 sequence (P42226 1-847): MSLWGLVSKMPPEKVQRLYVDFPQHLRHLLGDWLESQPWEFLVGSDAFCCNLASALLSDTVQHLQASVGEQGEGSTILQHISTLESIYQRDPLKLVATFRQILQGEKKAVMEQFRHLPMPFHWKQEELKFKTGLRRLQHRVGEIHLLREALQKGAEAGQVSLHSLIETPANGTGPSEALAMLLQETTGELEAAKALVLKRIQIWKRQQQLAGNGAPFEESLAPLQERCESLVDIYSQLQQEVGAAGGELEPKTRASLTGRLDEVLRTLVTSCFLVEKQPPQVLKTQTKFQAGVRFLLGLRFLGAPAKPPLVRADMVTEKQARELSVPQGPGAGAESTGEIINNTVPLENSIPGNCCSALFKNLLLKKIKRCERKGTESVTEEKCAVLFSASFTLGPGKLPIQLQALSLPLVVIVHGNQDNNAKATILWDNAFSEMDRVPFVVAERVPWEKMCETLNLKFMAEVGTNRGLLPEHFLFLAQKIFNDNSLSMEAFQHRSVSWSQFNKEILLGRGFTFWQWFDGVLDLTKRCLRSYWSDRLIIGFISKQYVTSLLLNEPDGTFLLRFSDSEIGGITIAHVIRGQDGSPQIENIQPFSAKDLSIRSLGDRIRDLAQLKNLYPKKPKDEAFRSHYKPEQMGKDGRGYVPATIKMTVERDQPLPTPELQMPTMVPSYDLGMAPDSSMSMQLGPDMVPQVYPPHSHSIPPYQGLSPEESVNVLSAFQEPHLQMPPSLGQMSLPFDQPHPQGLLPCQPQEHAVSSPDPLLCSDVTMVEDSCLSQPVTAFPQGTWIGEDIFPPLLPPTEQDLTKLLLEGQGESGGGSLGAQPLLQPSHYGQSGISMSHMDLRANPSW
Procedure: Dephosphorylation of STAT6 is examined using anti-phosphorylated STAT6 in U937, A549, and Jurkat cell lysates treated with PLAG at a concentration from 0.01 to 10 μg/ml. Phosphorylation of STAT6 is induced by treatment with 10 ng/ml of IL-4. Dephosphorylation of STAT1 is examined in the U937 cell lysate treated with PLAG (0.01 to 10 μg/ml). Phosphorylation of STAT1 is induced by 10 ng of IFN-γ treatment. Dephosphorylation of STAT1 and STAT6 is examined at 15 min after stimulation with IFN-γ and IL-4 respectively, in the PLAG pretreated cells. […] The transcriptional activity of STAT6 is decreased by the dephosphorylation of STAT6. […] No effect of PLAG on STAT1 phosphorylation is observed.

C3 [3] = experiment: In vitro inhibition of C3 expression in HMC-1 cells (IL-4/TNF-α induced, RT-PCR); type: cell-based, human; settings: IL-4 (5 ng) and TNF-α (10 ng), PLAG 0.1 and 1 μg/mL
Procedure: A blood cell line, HMC-1 (human mast cell, American Type Culture Collection, ATCC, Rockville, Md.) is incubated and maintained at 37° C. under 5% CO2 humid conditions. The medium is IMDM (Life Technologies, Karlsruhe, Germany) containing 10% Fetal Calf Serum (FCS, HyClone, Logan, Utah), 2 mM […], 100 μg/ml penicillin, 100 μg/ml streptomycin (Life Technologies). The cultured HMC-1 cells (1×10^6 cell/ml) are pretreated with 0.1 and 1 μg/mL concentrations of PLAG, followed by treatment with IL-4 (5 ng) and/or TNF-α (10 ng) to induce cellular activities.
The expressed C3 and its mRNA level changes are observed by using RT-PCR (Reverse Transcriptase Polymerase Chain Reaction). The RT-PCR is carried out as follows: the total RNA is separated by the standard protocol and cDNA is synthesized using AccuScript High Fidelity 1st Strand cDNA Synthesis Kit (Stratagene). Two-step RT-PCR reaction is conducted using Oligo-dT primer and reverse transcriptase, pair of primers and Taq polymerase (Takara, Shiga, Japan). […] The product of PCR is separated using 1.5% agarose gel, dyed with ethidium bromide (EtBr), and visualized with Gel Doc 2000 UV trans-illuminator (Bio-Rad Laboratories, Hercules, Calif., USA), and the experimental data is analyzed using Quantity One software (Bio-Rad Laboratories).

[4] = Colony forming units (CFUs) in spleen assay in heavily irradiated mice; type: in vivo; settings: 50 mg/kg/d i.p. or p.o.
Procedure: In order to determine the in vivo effect of PLAG on the recovery of hematopoiesis, a CFUs assay is performed in heavily irradiated mice.

STAT6 [5] = experiment: Reporter (luciferase) assay for STAT6 transcriptional activity in HepG2 cells; type: cell-based, human; settings: 10 ng IL-4, PLAG 0.01-10 μg/ml, 12 hour incubation
Procedure: (§1) By using STAT6 inhibitor (S6I), it is confirmed that the reduction of complement 3 in HepG2 cells (human hepatocyte cell line) is regulated by STAT6. […] It is also confirmed that PLAG has selective efficacy on STAT6 over STAT1. FIG. 1 presents graphs showing STAT1 and STAT6 transcriptional activity in the PLAG treated HepG2 cells. NC refers to the unstimulated control cell. For the STAT1 assay, gene transfected HepG2 (human hepatocyte cell line) is treated with 10 ng of IFN-γ and serially diluted PLAG is added (0.01 μg/ml, 0.1 μg/ml, 1 μg/ml, and 10 μg/ml as shown) to see its effect on gene expression in the stimulated cell. For the STAT6 assay, gene transfected HepG2 cells are treated with 10 ng of IL-4 and again serially diluted PLAG is added (0.01 μg/ml, 0.1 μg/ml, 1 μg/ml, and 10 μg/ml as shown) to see its effect on gene expression in the stimulated cell. The assay is carried out following a 12 hour incubation of treated cells.

C3 [6] = experiment: C3 inhibition in HMC-1 cells (ELISA); type: cell-based, human; settings: PLAG 1, 10 and 100 μg/mL for 2 hours, activated 72 hours with 10% FBS
Procedure: In a separate experiment, human mast cells (HMC-1, 1×10^5 cell/ml) are treated with PLAG of various concentrations (1, 10 and 100 μg/mL) for 2 hours. The cells are activated for 72 hours with 10% FBS (Fetal bovine serum) containing IMDM. The decrease of C3 is confirmed by ELISA analysis of the expressed protein.

HepG2 cells = experiment: WST-1 cell viability assay in HepG2 cells; type: cell-based; settings: PLAG 1 to 100 μg/ml
Procedure: (§2) The incubated HepG2 cell lines are treated with PLAG (1˜100 μg/ml), followed by IL-4 and TNF-α, reacted for 1 hour, incubated for 18 hours at 37° C. and the supernatant is isolated. Quantitation of the amount of C3 in the cellular culture medium (supernatant) from HepG2 cells is performed by ELISA using a commercially available monoclonal antibody (mAb, R&D Systems) and the manufacture's protocol; the results are presented in FIGS. 3A-3C. C3 is expressed spontaneously under in vitro culture conditions using 10% FCS added to HepG2 cells and incubated for 12 hr. The cells are treated with PLAG from 1 to 100 μg/ml (FIG. 3A, FIG. 3B) or 10 and 100 μg/ml of S6I (FIG. 3C), reacted with IL-4 and TNF-α for 1 hr and then incubated for 18 hr at 37° C. Cellular viability is confirmed using the WST-1 assay (FIG. 3A).

STAT1 = experiment: Reporter assay for STAT1 transcriptional activity in HepG2 cells; type: cell-based, human; settings: 10 ng IFN-γ, PLAG 0.01-10 μg/ml, 12 hour incubation
Procedure: as §1

C3 [7] = experiment: C3 in culture supernatant of HepG2 cells (ELISA); type: cell-based, human; settings: PLAG 1 to 100 μg/ml or S6I 10 and 100 μg/ml, IL-4 and TNF-α 1 hr, incubated 18 hr
Procedure: as §2

[8] = system: hematopoietic stem cells and megakaryocytes; settings: reported in WO 99/26640; cited from earlier work
complement 3 = experiment: Complement 3 activation by chemotherapeutic agents in mouse model; type: in vivo; settings: mice; PLAG 50 mg/kg daily 3 weeks with Gemcitabine, Cyclosphosphamide or Tamoxifen
Procedure: The effect of PLAG for treatment of chemotherapy-induced thrombocytopenia (CIT) is evaluated in an animal model. Anti-cancer agents (Gemcitabine 50 mg/kg, Cyclosphosphamide 100 mg/kg, or Tamoxifen 50 mg/kg) are dosed daily for 3 weeks; PLAG is also administered at 50 mg/kg daily for 3 weeks.
It is believed that the leukopenia and thrombocytopenia of these agents and other chemotherapeutic agents may be due at least in part to a specific complement-mediated toxicity. This is seen in FIG. 5.

CCCCC/C=C\C/C=C\CCCCCCCC(=O)OC(COC(C)=O)COC(=O)CCCCCCCCCCCCCCC (racemic) [PLAG, 1-palmitoyl-2-linoleoyl-3-acetylglycerol]
inhibition of C3 expression (mRNA, RT-PCR) (C3 [1]; PLAG 1 μg/ml, 2 hours): somewhat | inhibition of C3 expression (mRNA, RT-PCR) (C3 [1]; PLAG 10 μg/ml, 2 hours): entirely | IL-4 treatment induced STAT6 phosphorylation (STAT6 [2]): inhibited with increasing PLAG concentrations | expression of C3 (C3 [3]): suppressed by PLAG on a concentration dependent basis | number of splenic nodules, primitive progenitor cells and megakaryocytes [4]: marked increase | STAT6 transcriptional activity (expression) (STAT6 [5]): significant, dose-dependent effect | decrease of C3 (ELISA of expressed protein) (C3 [6]): proportional to the concentration of PLAG | cellular propagation and death (WST-1 viability) (HepG2 cells): does not affect the cellular propagation and death | STAT1 transcriptional activity (expression) (STAT1): no effect | expression of C3 (amount in supernatant, ELISA) (C3 [7]): decreased dose-dependently | growth-stimulating activities of hematopoietic stem cells and megakaryocytes [8]: have growth-stimulating activities | blockage of chemotherapy-induced complement 3 activation (complement 3): largely blocked

NC(=O)c1cnc(NCCc2ccc(O)c(Cl)c2)nc1NCc1ccccc1 [S6I, reference compound]
inhibition of C3 expression (mRNA, RT-PCR) (C3 [1]; S6I 10 and 100 μg/ml, compared with PLAG 1 and 10 μg/ml): comparable | expression of C3 (C3 [3]): suppresses expression of C3
